Measurements reported in patent US6887888B2, “Soluble compositions of triphenylethylene antiestrogens” (Orion Corporation, priority 1998, dated 2005).
Counter-ions that a name gives are not always drawn. Like-named read-outs stand apart in the source and are kept apart here.

Assay: Solubility of toremifene citrate in solvent (reference)
Type: physicochemical

A solubility (0.1 M HCl, simulated gastric fluid, read-out: Solubility in 0.1 M HCl) of about 30 µg/mL and a solubility (ethanol, organic solvent or mixture, read-out: Solubility in ethanol) of about 3000 µg/mL were found for `CN(C)CCOc1ccc(/C(=C(/CCCl)c2ccccc2)c2ccccc2)cc1` [toremifene citrate] in this work.
